Article PMC9870890 (Nature Communications, 2023)
“And” between values parts separate entries of the source, which are not always exact repeats. Equal values may be shown once. Read-outs that look alike come from different tables or passages of the source.

Tests used:
[1] = target: T1, M2RFL_WT (Homo sapiens, UniProt P08172); assay: [3H]-NMS competition binding (ACh competition, GoA titration), wild type full length M2R; design: unit not given here
T1 construct: made in house; host or cells: Sf9 membranes
T1 sequence (P08172 1-466): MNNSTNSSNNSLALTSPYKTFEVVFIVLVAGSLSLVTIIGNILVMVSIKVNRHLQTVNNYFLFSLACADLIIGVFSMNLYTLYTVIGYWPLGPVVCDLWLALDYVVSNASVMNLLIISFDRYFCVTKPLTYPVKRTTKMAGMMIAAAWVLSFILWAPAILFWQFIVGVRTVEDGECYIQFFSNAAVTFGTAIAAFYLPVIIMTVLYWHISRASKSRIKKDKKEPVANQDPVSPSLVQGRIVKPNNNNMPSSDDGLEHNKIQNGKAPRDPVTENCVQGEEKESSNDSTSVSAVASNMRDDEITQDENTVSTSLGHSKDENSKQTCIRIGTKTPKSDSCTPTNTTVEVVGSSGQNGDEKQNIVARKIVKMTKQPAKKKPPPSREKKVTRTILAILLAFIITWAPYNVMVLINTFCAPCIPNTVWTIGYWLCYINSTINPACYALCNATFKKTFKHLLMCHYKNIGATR
Procedure: Purified M2R receptor was reconstituted into high-density lipoprotein (HDL) particles constituting apolipoprotein A1(APOA1) and mixture of POPG: POPC lipids with 3:2 (mol:mol)ratio as previously described. […] Membranes or HDL particles were separated from excess [^3H]-NMS by Whatman GF/B filters using a Brandel 48-well harvester. The bound radioligand were read on a liquid scintillation counter (MicroBeta Jet, PerkinElmer). Data were analyzed by GraphPad Prism 9.2.0. […]
Data are given as mean
± SEM from 3 independent experiments.
M2RFL△9M_K383M and M2RFL_WT.
SEM from 3 independent experiments. […]

[2] = target: T2, M2R (Homo sapiens, UniProt P08172); assay: cell-based; settings: for Emax: HEK-293T
T2 sequence (P08172 1-466): T1 sequence (P08172 1-466)
Procedure: Measurement of G-protein mediated activation of M2R was performed applying the IP-One HTRF® accumulation assay (Cisbio, Codolet, France) as previously described protocols[29],[73]. In brief, HEK 293T cells were co-transfected with the cDNA coding for M2R and the hybrid G-protein Gαqi (Gαq protein with the last five amino acids at the C-terminus replaced by the corresponding sequence of Gαi; gift from The J. David Gladstone Institutes, San Francisco, CA) and transferred into 384-well micro plates. […] Accumulation of second messenger was stopped by addition of the detection reagents (IP1-d2 conjugate and Anti-IP1cryptate TB conjugate). […] Normalized concentration-response curves from four to eight experiments each done in duplicates were analyzed using the algorithms for four parameter non-linear regression implemented in PRISM 8.0 (GraphPad Software, USA) to derive EC50 and Emax values.

SMILES: CC(=O)OCC[N+](C)(C)C [ACh, acetylcholine]
- ACh competition curve data, Supplementary Fig. 4c ([1]; log[M] (ACh) -3): 7.417 and 5.223 and 6.047
- ACh competition curve data, Supplementary Fig. 4c ([1]; log[M] (ACh) -4): 27.7888 and 31.3709 and 30.2311
- ACh competition curve data, Supplementary Fig. 4c ([1]; log[M] (ACh) -5): 61.0434 and 71.3013 and 69.7784
- ACh competition curve data, Supplementary Fig. 4c ([1]; log[M] (ACh) -6): 79.8736 and 96.1082 and 98.1674
- ACh competition curve data, Supplementary Fig. 4c ([1]; log[M] (ACh) -7): 94.365 and 99.8819 and 105.753
- ACh competition curve data, Supplementary Fig. 4c ([1]; log[M] (ACh) -8): 97.3725 and 89.5377 and 100.935

SMILES: C[N+](C)(C)CC#CCOC1=NOCC1 [Ixo, iperoxo]
- EC50 [2]: 0.31 ± 0.043 nM
- Emax ([2]; read-out: Emax in % of acetylcholin, IP accumulation by iperoxo, agonist (absence of LY2119620)): 115%
- Emax ([2]; read-out: Emax in % of acetylcholin, IP accumulation by iperoxo, agonist + 0.1 µM LY): 111%
- Emax ([2]; read-out: Emax in % of acetylcholin, IP accumulation by iperoxo, agonist + 1 µM LY): 105%
- Emax ([2]; read-out: Emax in % of acetylcholin, IP accumulation by iperoxo, agonist + 3 µM LY): 104%
- Emax ([2]; read-out: Emax in % of acetylcholin, IP accumulation by iperoxo, agonist + 10 µM LY): 104%
- Emax ([2]; read-out: Emax in % of acetylcholin, IP accumulation by iperoxo, agonist + 100 µM LY): 102%
- Emax ([2]; read-out: IP accumulation as % max effect of acetylcholin, iperoxo log [M] 3-8, 1µM LY2119620): 103%
- Emax ([2]; read-out: IP accumulation as % max effect of acetylcholin, iperoxo log [M] 3-8, 3µM LY2119620): 102%
- Emax ([2]; read-out: IP accumulation as % max effect of acetylcholin, iperoxo log [M] 3-8, 10µM LY2119620): 99.3%
- Emax ([2]; read-out: IP accumulation as % max effect of acetylcholin, iperoxo log [M] 3-8, 100µM LY2119620): 98.3%
- Emax ([2]; read-out: IP accumulation as % max effect of acetylcholin, iperoxo log [M] 3-8, no LY2119620): 111%
- Emax ([2]; read-out: IP accumulation as % max effect of acetylcholin, iperoxo log [M] 3-9, 0.1µM LY2119620): 122%
- Emax ([2]; read-out: IP accumulation as % max effect of acetylcholin, iperoxo log [M] 3-9, 1µM LY2119620): 104%
- Emax ([2]; read-out: IP accumulation as % max effect of acetylcholin, iperoxo log [M] 3-9, 3µM LY2119620): 106%
- Emax ([2]; read-out: IP accumulation as % max effect of acetylcholin, iperoxo log [M] 3-9, 10µM LY2119620): 98.3%
- Emax ([2]; read-out: IP accumulation as % max effect of acetylcholin, iperoxo log [M] 3-9, 30µM LY2119620): 87.5%
- Emax ([2]; read-out: IP accumulation as % max effect of acetylcholin, iperoxo log [M] 3-9, 100µM LY2119620): 106%
- Emax ([2]; read-out: IP accumulation as % max effect of acetylcholin, iperoxo log [M] 3-9, no LY2119620): 113%
- Emax ([2]; read-out: IP accumulation as % max effect of acetylcholin, iperoxo log [M] 3-10, 0.1µM LY2119620): 85.3%
- Emax ([2]; read-out: IP accumulation as % max effect of acetylcholin, iperoxo log [M] 3-10, 1µM LY2119620): 100%
- Emax ([2]; read-out: IP accumulation as % max effect of acetylcholin, iperoxo log [M] 3-10, 3µM LY2119620): 104%
- Emax ([2]; read-out: IP accumulation as % max effect of acetylcholin, iperoxo log [M] 3-10, 10µM LY2119620): 106%
- Emax ([2]; read-out: IP accumulation as % max effect of acetylcholin, iperoxo log [M] 3-10, 100µM LY2119620): 104%
- Emax ([2]; read-out: IP accumulation as % max effect of acetylcholin, iperoxo log [M] 3-11, 0.1µM LY2119620): 26.4%
- Emax ([2]; read-out: IP accumulation as % max effect of acetylcholin, iperoxo log [M] 3-11, 10µM LY2119620): 94.8%
- Emax ([2]; read-out: IP accumulation as % max effect of acetylcholin, iperoxo log [M] 3-12, 0.1µM LY2119620): 12.3%
- Emax ([2]; read-out: IP accumulation as % max effect of acetylcholin, iperoxo log [M] 3-12, 1µM LY2119620): 35.6%
- Emax ([2]; read-out: IP accumulation as % max effect of acetylcholin, iperoxo log [M] 3-12, 100µM LY2119620): 80.3%
- Emax ([2]; read-out: IP accumulation as % max effect of acetylcholin, iperoxo log [M] -6, 0.1µM LY2119620): 108%
- Emax ([2]; read-out: IP accumulation as % max effect of acetylcholin, iperoxo log [M] -6, 1µM LY2119620): 101%
- Emax ([2]; read-out: IP accumulation as % max effect of acetylcholin, iperoxo log [M] -6, 3µM LY2119620): 101%
- Emax ([2]; read-out: IP accumulation as % max effect of acetylcholin, iperoxo log [M] -6, 10µM LY2119620): 104%
- Emax ([2]; read-out: IP accumulation as % max effect of acetylcholin, iperoxo log [M] -6, 30µM LY2119620): 97%
- Emax ([2]; read-out: IP accumulation as % max effect of acetylcholin, iperoxo log [M] -6, 100µM LY2119620): 104%
- Emax ([2]; read-out: IP accumulation as % max effect of acetylcholin, iperoxo log [M] -6, no LY2119620): 102%
- Emax ([2]; read-out: IP accumulation as % max effect of acetylcholin, iperoxo log [M] -7, 0.1µM LY2119620): 104%
- Emax ([2]; read-out: IP accumulation as % max effect of acetylcholin, iperoxo log [M] -7, 1µM LY2119620): 104%
- Emax ([2]; read-out: IP accumulation as % max effect of acetylcholin, iperoxo log [M] -7, 3µM LY2119620): 98.3%
- Emax ([2]; read-out: IP accumulation as % max effect of acetylcholin, iperoxo log [M] -7, 10µM LY2119620): 101%
- Emax ([2]; read-out: IP accumulation as % max effect of acetylcholin, iperoxo log [M] -7, 100µM LY2119620): 102%
- Emax ([2]; read-out: IP accumulation as % max effect of acetylcholin, iperoxo log [M] -7, no LY2119620): 107%
- Emax ([2]; read-out: IP accumulation as % max effect of acetylcholin, iperoxo log [M] -8, 0.1µM LY2119620): 113%
- Emax ([2]; read-out: IP accumulation as % max effect of acetylcholin, iperoxo log [M] -8, 3µM LY2119620): 106%
- Emax ([2]; read-out: IP accumulation as % max effect of acetylcholin, iperoxo log [M] -8, 10µM LY2119620): 102%
- Emax ([2]; read-out: IP accumulation as % max effect of acetylcholin, iperoxo log [M] -8, no LY2119620): 112%
- Emax ([2]; read-out: IP accumulation as % max effect of acetylcholin, iperoxo log [M] -9, 1µM LY2119620): 108%
- Emax ([2]; read-out: IP accumulation as % max effect of acetylcholin, iperoxo log [M] -9, 10µM LY2119620): 106%
- Emax ([2]; read-out: IP accumulation as % max effect of acetylcholin, iperoxo log [M] -9, 100µM LY2119620): 108%
- Emax ([2]; read-out: IP accumulation as % max effect of acetylcholin, iperoxo log [M] -10, 3µM LY2119620): 100%
- Emax ([2]; read-out: IP accumulation as % max effect of acetylcholin, iperoxo log [M] -10, 10µM LY2119620): 101%
- Emax ([2]; read-out: IP accumulation as % max effect of acetylcholin, iperoxo log [M] -12, 100µM LY2119620): 94.6%
- Emax ([2]; read-out: IP accumulation as % max effect of acetylcholin, iperoxo log [M] -14, 0.1µM LY2119620): 18.7%
- Emax ([2]; read-out: IP accumulation as % max effect of acetylcholin, iperoxo log [M] -14, 30µM LY2119620): 79.3%
- Emax ([2]; read-out: IP accumulation as % max effect of acetylcholin, iperoxo log [M] -14, 100µM LY2119620): 78.3%
